# Reference: patent publication US4912116A, “Propiophenone derivatives for treatment of pollakiuria (frequency urination)” (Hokuriku Pharmaceutical Co., Ltd., priority 1986, dated 1990)
# Counter-ions that a name gives are not always drawn.
# Key:
# [1] = test system: micturition reflex (rhythmic bladder contractions); test: Inhibition of micturition reflex (rhythmic bladder contractions) in anesthetized rats; format: in vivo, male wister rats; conditions: for Disappearance time (of bladder contractions): i.v., 3 rats, mean ± S.E.; for ED (3 min disappearance of contractions): iv, read-out: ED3 (dose at which rhythmic bladder contractions disappeared in three (3) minutes)
# Protocol: (§1) statistical analysis: Each data of Experiment 1-6 represents the mean±S.E. statistical analysis of the data was performed using student's t-test.
# According to the method described by Morikawa et al. (Folia phamacol. japon.: 88,355 (1986), male wister rats weighing about 300 g (in case of intraduodenal administration, fasted 18-20 hours) were anesthetized with urethane (500 mg/kg, i.p.) and alpha-chloralose (50 mg/kg, i.p.), and fixed on their back.
# Then, through a midline incision of the abdomen, the urinary bladder was exposed, provided with a small incision, and a balloon (capacity about 1 ml) was inserted into the bladder dome.
# The balloon was connected to a pressure transducer and variations of inside pressure were recorded on a recorder.
# Micturition reflex was elicited by elevating balloon pressure 10-20 cm H2 O.
# In case of intravenous administration, the drug was administrated through a cannula inserted into the left jugular vein and, in case of intraduodenum administration, the drug was administrated through a cannula into the duodenum from outside the stomach.
# In case of intravenous administration, the drug was evaluated by the dissappearance time of bladder contractions caused by micturition reflex.
# In case of intraduodenal administration, the sum total of amplitude of bladder contractions caused by the micturition reflex was calculated during each five minutes at 5 min. before and 15, 30, 45, and 60 min. after the administration.
# Then, the maximum inhibition rate was determined from one of the above judgment times compared with that of before the administration, and the dose which inhibited 50 percent of the sum total of amplitude of bladder contractions during five minutes (ED 50 value), was calculated from the graph.
# [2] = in vivo; conditions: mouse, oral, mortality for one week, Probit method
# Protocol: Five to ten male ddY mice aged 4-5 weeks were used for each determination.
# The test drug (5-8 dose levels) was orally administrated, and the LD50 value was calculated by Probit method from the mortality for one week after administration.
# [3] = test system: cystometrogram (time to micturition); test: Effects on the cystometrogram (Dog); format: in vivo, Mongrel adult dogs; conditions: i.v., dogs, mean ± S.E., saline 6.0 ± 13.8
# Protocol: as §1
# Mongrel adult dogs weighing about 10 kg were anesthetized with thiopental (20 mg/kg, i.v.) and immobilized with gallamine (2 mg/kg, i.v.), and fixed on their back.
# In the experiment, infusion of pentobarbital (3 mg/kg/hr, i.v.) and gallamine (3 mg/kg i.v.) were continuted, and artifical respiration was performed (20 times/min, 20 ml air/kg).
# After midline incision of the abdomen, the ureters were ligated and polyethylene tubes were inserted into the kidney side and the urinary bladder side. Urine was led out of the body from the kidney side, and warm saline was infused using a continuous infusion pump from the urinary bladder side.
# Then, a catheter was inserted into the bladder dome and connected to a pressure transducer. Intravesical pressure was recorded on a recorder.
# The infusion rate of saline was changed (6-35 ml/min) so as to induce the time to micturition from the saline infusion (time to micturition) at about five minutes.
# The drug was administered (through a cannula inserted into the right femoral vein) at the second minute before the last time to micturition, and the delayed time of micturition was evaluated.
# [4] = test system: cystometrogram (time to micturition); test: Effects on the cystometrogram (Cat); format: in vivo, Mongrel adult cats; conditions: cats
# Protocol: as §1
# Mongrel adult cats weighing about 3 kg (in case of intraduodenal administration, fasted 24 hours) were anesthetized with urethane (500 mg/kg, i.p.) and alpha-chloralose (50 mg/kg, i.p.) and fixed on their back.
# After midline incision of the abdomen, the ureters were ligated and polyethylene tubes were inserted into the kidney side and urinary bladder side, urine was led out of the body from the kidney side, and warm saline was infused using a continuous infusion pump from the urinary bladder side.
# Then, a catheter was inserted into the bladder dome and connected to a pressure transducer Intravesical pressure was recorded on a recorder.
# The infusion rate of saline was changed (0.7-6.6 ml/min) so as to induce the time to micturition from saline infusion at about five minutes.
# Each of delayed time of micturition was evaluated. In case of intravenous administration, the drug was administered through a cannula inserted into the right femoral vein at 30 seconds before saline infusion.
# In case of intraduodenal administration, the drug was administrated through a tube inserted into the duodenum by way of mouth at the time of saline infusion, and the time to micturition was measured at 15 min. intervals until 90 min.
Compound,Disappearance time (of bladder contractions) ([1]; 1 mg/kg) [min],Disappearance time (of bladder contractions) ([1]; 2 mg/kg) [min],Disappearance time (of bladder contractions) ([1]; 4 mg/kg) [min],ED (3 min disappearance of contractions) ([1]; Rattus norvegicus) [mg/kg],LD50 at 168 h [2] [mg/kg],Disappearance time (of bladder contractions) ([1]; 8 mg/kg) [min],further results
CC(CN1CCCC1)C(=O)c1ccc(C2CCCCC2)cc1 (stereo not shown) [Compound 2],1.0 ± 1.0,2.5 ± 1.3,6.3 ± 0.8,2.2,587,–,–
CCc1ccc(C(=O)C(C)CN2CCCCC2)cc1 (stereo not shown) [Compound 3],0.4 ± 0.4,5.3 ± 2.6,12.0 ± 1.2,1.4,–,–,–
Cc1ccc(C(=O)C(C)CN2CCCCC2)cc1 (stereo not shown) [Compound 4],1.0 ± 0.7,2.3 ± 0.5,4.9 ± 1.9,2.4,450,–,–
COc1ccc(C(=O)C(C)CN2CCCC2)c(C)c1C (stereo not shown) [Compound 5],6.3 ± 1.4,–,–,0.25,–,–,Disappearance time (of bladder contractions) ([1]; 0.25 mg/kg): 3.0 ± 0.4 min
CN1CCCC1CCC(=O)c1ccc(Cl)cc1 (stereo not shown) [Compound 6],–,1.1 ± 0.3,1.9 ± 0.3,8,–,3.0 ± 0.3,–
CC(CN1CCOCC1)C(=O)c1cccc(F)c1 (stereo not shown) [Compound 7],–,1.8 ± 1.0,–,2.8,–,6.8 ± 2.1,–
CC(CN1CCCC1)C(=O)c1ccc(CF)cc1 (stereo not shown) [Compound 8],–,1.5 ± 4.79,2.4 ± 2.0,–,–,5.2 ± 2.5,–
CC(CN1CCCCCC1)C(=O)c1ccc(F)cc1 (stereo not shown) [Compound 9],0.5 ± 0.1,1.2 ± 0.8,5.5 ± 2.7,2.7,–,–,–
"Cc1c(-c2ccccc2)oc2c(C(=O)OCCN3CCCCC3)cccc2c1=O [flavoxate-HCl, reference compound]",1.1 ± 1.1,–,–,1.4,1330,–,"Delayed time of micturition ([3]; 1 mg/kg): 0.6 ± 35.4 s; Delayed time of micturition ([3]; 3 mg/kg, * p < 0.05 vs last time to micturition): 30.6 ± 44.4 s; Disappearance time (of bladder contractions) ([1]; 3 mg/kg): 7.5 ± 2.7 min; ED50 ([1]; Rattus norvegicus, intraduodenal administration, read-out: ED50 (dose which inhibited 50 percent of the sum total of amplitude of bladder contractions during five minutes)): 270 mg/kg; Delayed time to micturition ([4]; 1 mg/kg, i.v., mean ± S.E., saline 6.6 ± 10.2): 12.0 ± 10.8 s; Delayed time to micturition ([4]; 4 mg/kg, i.v., mean ± S.E., saline 6.6 ± 10.2): 39.0 ± 43.8 s; Delayed time to micturition ([4]; 8 mg/kg, i.v., mean ± S.E., saline 6.6 ± 10.2): -16.8 ± 36.6 s; Delayed time to micturition ([4]; 30.0 mg/kg, i.d., after 30 min., water 22.2 ± 16.2): -45.6 ± 37.8 s; delayed effect on the cystometrogram (in words) ([4]; intravenous and intraduodenal): not recognized to produce delayed effects"
